The values that follow come from patent publication US20170050961A1, “IMIDAZO[1,2-A]PYRIDINES AS SOLUBLE GUANYLATE CYCLASE STIMULATORS FOR THE TREATMENT OF CARDIOVASCULAR DISEASES” (BAYER PHARMA AKTIENGESELLSCHAFT, priority 2014, published 2017).

The target in the test is T1, recombinant guanylate cyclase reporter cell line (Rattus norvegicus, UniProt P19686+P20595).
T1 construct: expressed in transfected cells
T1 sequence (P19686 1-690): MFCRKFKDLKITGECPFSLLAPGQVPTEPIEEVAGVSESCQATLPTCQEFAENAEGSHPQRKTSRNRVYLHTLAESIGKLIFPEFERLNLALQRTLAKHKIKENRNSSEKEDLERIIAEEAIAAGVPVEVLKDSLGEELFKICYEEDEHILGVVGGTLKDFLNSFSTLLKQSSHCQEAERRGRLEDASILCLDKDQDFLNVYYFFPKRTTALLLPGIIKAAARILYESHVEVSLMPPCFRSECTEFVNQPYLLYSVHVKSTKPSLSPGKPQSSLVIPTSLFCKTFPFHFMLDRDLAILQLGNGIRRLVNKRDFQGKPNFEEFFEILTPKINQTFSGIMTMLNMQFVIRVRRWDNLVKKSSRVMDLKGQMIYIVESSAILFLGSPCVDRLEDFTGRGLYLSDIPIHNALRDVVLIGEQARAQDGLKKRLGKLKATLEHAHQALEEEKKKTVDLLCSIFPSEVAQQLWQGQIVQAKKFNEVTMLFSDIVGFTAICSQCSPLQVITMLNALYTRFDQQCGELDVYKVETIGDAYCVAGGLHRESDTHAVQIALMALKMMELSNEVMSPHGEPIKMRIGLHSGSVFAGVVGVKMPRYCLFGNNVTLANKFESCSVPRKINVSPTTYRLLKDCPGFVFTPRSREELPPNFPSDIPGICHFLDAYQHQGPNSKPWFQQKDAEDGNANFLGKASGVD
T1 sequence (P20595 1-619): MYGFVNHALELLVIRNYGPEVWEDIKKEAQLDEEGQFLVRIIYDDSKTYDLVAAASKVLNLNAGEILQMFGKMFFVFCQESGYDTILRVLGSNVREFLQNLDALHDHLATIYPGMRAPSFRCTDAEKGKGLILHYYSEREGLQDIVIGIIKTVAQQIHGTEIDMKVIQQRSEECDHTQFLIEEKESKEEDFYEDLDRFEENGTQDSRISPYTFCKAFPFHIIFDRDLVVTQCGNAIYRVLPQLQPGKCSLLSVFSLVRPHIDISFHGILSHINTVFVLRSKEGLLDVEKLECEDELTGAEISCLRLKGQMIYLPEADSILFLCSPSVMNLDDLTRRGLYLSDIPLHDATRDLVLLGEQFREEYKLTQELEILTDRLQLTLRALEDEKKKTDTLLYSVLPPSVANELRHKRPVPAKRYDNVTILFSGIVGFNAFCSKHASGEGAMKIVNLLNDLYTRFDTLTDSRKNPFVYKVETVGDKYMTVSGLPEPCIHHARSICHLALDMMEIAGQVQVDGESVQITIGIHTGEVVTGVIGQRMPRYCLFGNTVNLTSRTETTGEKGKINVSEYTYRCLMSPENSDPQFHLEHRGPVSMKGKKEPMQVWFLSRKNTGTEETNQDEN
Briefly: Effect on a recombinant guanylate cyclase reporter cell line. In kind it is cell-based. The conditions noted are these: MEC=minimum effective concentration; in some cases as mean values for individual determinations. On the procedure:
B-2. Effect on a Recombinant Guanylate Cyclase Reporter Cell Line
The cellular activity of the compounds of the invention is determined using a recombinant guanylate cyclase reporter cell line, as described in F. Wunder et al., Anal Biochem. 339, 104-112 (2005).
Representative MEC values (MEC=minimum effective concentration) for the compounds of the invention are shown in the table below (in some cases as mean values for individual determinations): […]
With `CCC(C)(N)CNC(=O)c1c(C)nc2c(OCc3c(F)cccc3F)cc(-c3cccnc3)cn12` (racemic) [Example 1, rac-N-(2-Amino-2-methylbutyl)-8-[(2,6-difluorobenzyl)oxy]-2-methyl-6-(pyridin-3-yl)imidazo[1,2-a]pyridine-3-carboxamide], the MEC is 10 µM.

Regarding `CCC(C)(N)CNC(=O)c1c(C)nc2c(OCc3c(F)cccc3F)cc(C3CC3)cn12.Cl` (racemic) [Example 2, rac-N-(2-Amino-2-methylbutyl)-6-cyclopropyl-8-[(2,6-difluorobenzyl)oxy]-2-methylimidazo[1,2-a]pyridine-3-carboxamide hydrochloride], the MEC came to 1.0 µM.

Regarding `CCC(C)(N)CNC(=O)c1c(C)nc2c(OCc3c(F)cccc3F)cc(-n3cccn3)cn12.Cl` (racemic) [Example 3, rac-N-(2-Amino-2-methylbutyl)-8-[(2,6-difluorobenzyl)oxy]-2-methyl-6-(1H-pyrazol-1-yl)imidazo[1,2-a]pyridine-3-carboxamide hydrochloride], the MEC came out at 3.0 µM.

Consider `CCC(C)(N)CNC(=O)c1c(C)nc2c(OCc3c(F)cccc3F)cc(COC)cn12.Cl` (racemic) [Example 4, rac-N-(2-Amino-2-methylbutyl)-8-[(2,6-difluorobenzyl)oxy]-6-(methoxymethyl)-2-methylimidazo[1,2-a]pyridine-3-carboxamide hydrochloride], for which the MEC came out at 3.0 µM.

Take `CCC(C)(N)CNC(=O)c1c(C)nc2c(OCc3c(F)cccc3F)cc(OC(F)F)cn12` (racemic) [Example 5, rac-N-(2-Amino-2-methylbutyl)-8-[(2,6-difluorobenzyl)oxy]-6-(difluoromethoxy)-2-methylimidazo[1,2-a]pyridine-3-carboxamide]: the MEC amounted to 3.0 µM.

With `CCC(C)(N)CNC(=O)c1c(C)nc2c(OCc3c(F)cccc3F)cc(-c3cnn(C)c3)cn12` (racemic) [Example 6, rac-N-(2-Amino-2-methylbutyl)-8-[(2,6-difluorobenzyl)oxy]-2-methyl-6-(1-methyl-1H-pyrazol-4-yl)imidazo[1,2-a]pyridine-3-carboxamide], the MEC stood at 10 µM.

Turning to `CCC(C)(N)CNC(=O)c1c(C)nc2c(OCc3c(F)cccc3F)cc(-c3cnco3)cn12` (racemic) [Example 7, rac-N-(2-Amino-2-methylbutyl)-8-[(2,6-difluorobenzyl)oxy]-2-methyl-6-(1,3-oxazol-5-yl)imidazo[1,2-a]pyridine-3-carboxamide], the MEC was 1.0 µM.

On to `CCC(C)(N)CNC(=O)c1c(COC)nc2c(OCc3c(F)cccc3F)cc(C)cn12.Cl` (racemic) [Example 8, rac-N-(2-Amino-2-methylbutyl)-8-[(2,6-difluorobenzyl)oxy]-2-(methoxymethyl)-6-methylimidazo[1,2-a]pyridine-3-carboxamide hydrochloride], for which the MEC turned out to be 10 µM.

`CCC(C)(N)CNC(=O)c1c(Cl)nc2c(OCc3c(F)cccc3F)cc(C)cn12` (racemic) [Example 20]: the MEC worked out at 0.07 µM.

For the molecule `CCCC(C)(N)CNC(=O)c1c(Cl)nc2c(OCc3c(F)cccc3F)cc(C)cn12` (racemic) [Example 23, rac-N-(2-Amino-2-methylpentyl)-2-chloro-8-[(2,6-difluorobenzyl)oxy]-6-methylmidazo[1,2-a]pyridine-3-carboxamide], the MEC worked out at 0.1 µM.

As to `Cc1cc(OCc2c(F)cccc2F)c2nc(C)c(C(=O)NCC(C)(N)CC[Si](C)(C)C)n2c1` (single isomer, unassigned; enantiomer a) [Example 13, ent-N-[2-Amino-2-methyl-4-(trimethylsilyl)butyl]-8-[(2,6-difluorobenzyl)oxy]-2,6-dimethylimidazo[1,2-a]pyridine-3-carboxamide (enantiomer A)], the MEC stood at 0.3 µM.

Take `Cc1cc(OCc2c(F)cccc2F)c2nc(C)c(C(=O)NCC(C)(N)CCC[Si](C)(C)C)n2c1` (single isomer, unassigned; enantiomer a) [Example 15, ent-N-[2-Amino-2-methyl-5-(trimethylsilyl)pentyl]-8-[(2,6-difluorobenzyl)oxy]-2,6-dimethylimidazo[1,2-a]pyridine-3-carboxamide (enantiomer A)]: the MEC was 0.3 µM.

For `CCC(C)(N)CNC(=O)c1c(Cl)nc2c(OCc3c(F)cccc3F)cc(C)cn12` (single isomer, unassigned; enantiomer a) [Example 21, ent-N-(2-Amino-2-methylbutyl)-2-chloro-8-[(2,6-difluorobenzyl)oxy]-6-methylimidazo[1,2-a]pyridine-3-carboxamide (enantiomer A)], the MEC came to 0.03 µM.

For the molecule `CCCC(C)(N)CNC(=O)c1c(Cl)nc2c(OCc3c(F)cccc3F)cc(C)cn12` (single isomer, unassigned; enantiomer a) [Example 24, ent-N-(2-Amino-2-methylpentyl)-2-chloro-8-[(2,6-difluorobenzyl)oxy]-6-methylimidazo[1,2-a]pyridine-3-carboxamide (enantiomer A)], the MEC was determined as 0.1 µM.

For the molecule `Cc1cc(OCc2ncccc2F)c2nc(C)c(C(=O)NCC(C)(N)CCC(F)(F)F)n2c1` (single isomer, unassigned; enantiomer b) [Example 9, ent-N-(2-Amino-5,5,5-trifluoro-2-methylpentyl)-8-[(3-fluoropyridin-2-yl)methoxy]-2,6-dimethylimidazo[1,2-a]pyridine-3-carboxamide (enantiomer B)], the MEC came out at 0.3 µM.

Regarding `Cc1nc2c(OCc3ncccc3F)cc(Cl)cn2c1C(=O)NCC(C)(N)CCC(F)(F)F` (single isomer, unassigned; enantiomer b) [Example 10, ent-N-(2-Amino-5,5,5-trifluoro-2-methylpentyl)-6-chloro-8-[(3-fluoropyridin-2-yl)methoxy]-2-methylimidazo[1,2-a]pyridine-3-carboxamide (enantiomer B)], the MEC is 0.3 µM.

Turning to `Cc1nc2c(OCc3ncccc3F)cccn2c1C(=O)NCC(C)(N)CCC(F)(F)F` (single isomer, unassigned; enantiomer b) [Example 11, ent-N-(2-Amino-5,5,5-trifluoro-2-methylpentyl)-8-[(3-fluoropyridin-2-yl)methoxy]-2-methylimidazo[1,2-a]pyridine-3-carboxamide (enantiomer B)], the MEC turned out to be 1.0 µM.

On to `Cc1cc(OCc2c(F)cccc2F)c2nc(C)c(C(=O)NCC(C)(N)CC[Si](C)(C)C)n2c1` (single isomer, unassigned; enantiomer b) [Example 14, ent-N-[2-Amino-2-methyl-4-(trimethylsilyl)butyl]-8-[(2,6-difluorobenzyl)oxy]-2,6-dimethylimidazo[1,2-a]pyridine-3-carboxamide (enantiomer B)], for which the MEC came out at 0.2 µM.

Turning to `Cc1cc(OCc2c(F)cccc2F)c2nc(C)c(C(=O)NCC(C)(N)CCC[Si](C)(C)C)n2c1` (single isomer, unassigned; enantiomer b) [Example 16, ent-N-[2-Amino-2-methyl-5-(trimethylsilyl)pentyl]-8-[(2,6-difluorobenzyl)oxy]-2,6-dimethylimidazo[1,2-a]pyridine-3-carboxamide (enantiomer B)], the MEC is 1.0 µM.

As to `Cc1cc(OCc2c(F)cccc2F)c2nc(C3CC(F)(F)C3)c(C(=O)NCC(C)(N)CCC(F)(F)F)n2c1` (single isomer, unassigned; enantiomer b) [Example 17, ent-N-(2-Amino-5,5,5-trifluoro-2-methylpentyl)-8-[(2,6-difluorobenzyl)oxy]-2-(3,3-difluorocyclobutyl)-6-methylimidazo[1,2-a]pyridine-3-carboxamide (enantiomer B)], the MEC was 3.0 µM.
